Source: PubChem BioAssay AID334 (DTP/NCI, 2004)
Where “and” joins values, the source holds several entries; their conditions need not be identical. Equal values may be shown once. Toxic doses and inconclusive results are not listed.

Test system: CD2F1 mice, intracerebral P388 leukemia, median survival T/C%
Experiment: NCI In Vivo Anticancer Drug Screen. Data for tumor model P388 Leukemia (intracerebral) in CD2F1 (CDF1) mice
Conditions: endpoint: median survival time, higher = longer survival
Protocol: The antitumor activity of compounds was measured in mice bearing transplantable tumors. Survival or tumor size were measured and the results are expressed as the measurement made in the treated group (T) divided by the measurement made in the vehicle treated control group (C). The tumor model used in this assay is P388 Leukemia (intracerebral) in CD2F1 (CDF1) mice

In the case of `CCCCCCCCCCCCCCCCCC(=O)NC(Cc1ccc(N(CCCl)CCCl)cc1)C(=O)O` (configuration not stated), the T/C (dose: 1.88 mg/kg/injection, schedule: Q03HX008 (ip), vehicle: saline) is reported as 110 % of control and the T/C (dose: 3.75 mg/kg/injection, schedule: Q03HX008 (ip), vehicle: saline) is reported as 115 % of control.
In the case of `CC/C(=C(/CC)c1ccc(O)cc1)c1ccc(O)cc1`, the T/C (dose: 8.0 mg/kg/injection, schedule: Q01DX009 (ip), vehicle: saline with Tween-80) is reported as 105 % of control, the T/C (dose: 8.0 mg/kg/injection, schedule: Q01DX009 (ip), vehicle: saline) is reported as 104 % of control and the T/C (dose: 16.0 mg/kg/injection, schedule: Q01DX009 (ip), vehicle: saline with Tween-80) is reported as 106 % of control. The T/C (dose: 16.0 mg/kg/injection, schedule: Q01DX009 (ip), vehicle: saline) was 107 % of control, the T/C (dose: 32.0 mg/kg/injection, schedule: Q01DX009 (ip), vehicle: saline with Tween-80) was 107 % of control and the T/C (dose: 32.0 mg/kg/injection, schedule: Q01DX009 (ip), vehicle: saline) was 158 % of control. For the same molecule, the T/C (dose: 64.0 mg/kg/injection, schedule: Q01DX009 (ip), vehicle: saline with Tween-80) was 100 % of control, the T/C (dose: 64.0 mg/kg/injection, schedule: Q01DX009 (ip), vehicle: saline) was 116 % of control and the T/C (dose: 128.0 mg/kg/injection, schedule: Q01DX009 (ip), vehicle: saline with Tween-80) was 115 % of control. The T/C (dose: 128.0 mg/kg/injection, schedule: Q01DX009 (ip), vehicle: saline) was 90 % of control, the T/C (dose: 256.0 mg/kg/injection, schedule: Q01DX009 (ip), vehicle: saline with Tween-80) was 106 % of control and the T/C (dose: 256.0 mg/kg/injection, schedule: Q01DX009 (ip), vehicle: saline) was 88 % of control. For the same molecule, the T/C (dose: 512.0 mg/kg/injection, schedule: Q01DX009 (ip), vehicle: saline with Tween-80) was 86 % of control.
For `CC[C@]1(O)C[C@H]2CN(CCc3c([nH]c4ccccc34)[C@@](C(=O)OC)(c3cc4c(cc3OC)N(C=O)[C@H]3[C@@](O)(C(=O)OC)[C@H](OC(C)=O)[C@]5(CC)C=CCN6CC[C@]43[C@@H]65)C2)C1`, the T/C (dose: 0.2 mg/kg/injection, schedule: Q04DX003 (ip), vehicle: water) was 111 % of control, the T/C (dose: 0.4 mg/kg/injection, schedule: Q04DX003 (ip), vehicle: water) was 106 % of control and the T/C (dose: 0.8 mg/kg/injection, schedule: Q04DX003 (ip), vehicle: water) was 116 % of control. The T/C (dose: 1.6 mg/kg/injection, schedule: Q04DX003 (ip), vehicle: water) was 109 % of control and the T/C (dose: 3.2 mg/kg/injection, schedule: Q04DX003 (ip), vehicle: water) was 106 % of control.
`COc1ccc2cc1Oc1ccc(cc1)C[C@H]1c3cc(c(OC)cc3CCN1C)Oc1c(OC)c(OC)cc3c1[C@H](C2)N(C)CC3` was tested, and the T/C (dose: 50.0 mg/kg/injection, schedule: Q01DX005 (ip), vehicle: Klucel (hydroxypropylcellulose) (HPC)) was 105 % of control and 106 % of control, the T/C (dose: 100.0 mg/kg/injection, schedule: Q01DX005 (ip), vehicle: Klucel (hydroxypropylcellulose) (HPC)) was 102 % of control and 105 % of control and the T/C (dose: 200.0 mg/kg/injection, schedule: Q01DX005 (ip), vehicle: Klucel (hydroxypropylcellulose) (HPC)) was 99 % of control and 108 % of control. The T/C (dose: 400.0 mg/kg/injection, schedule: Q01DX005 (ip), vehicle: Klucel (hydroxypropylcellulose) (HPC)) was 97 % of control and 104 % of control.
In the case of `Nc1nncs1`, the T/C (dose: 64.0 mg/kg/injection, schedule: Q01DX005 (ip), vehicle: saline with Tween-80) is reported as 119 % of control, the T/C (dose: 128.0 mg/kg/injection, schedule: Q01DX005 (ip), vehicle: saline with Tween-80) is reported as 160 % of control and 169 % of control and the T/C (dose: 256.0 mg/kg/injection, schedule: Q01DX005 (ip), vehicle: saline with Tween-80) is reported as 180 % of control.
With `O=P1(N(CCCl)CCCl)NCCCO1` (configuration not stated) the T/C (dose: 265.0 mg/kg/injection, schedule: Q01DX001 (ip), vehicle: saline) was 163 % of control.
With `Cc1cnc(/C=N\NC(N)=S)c2cccc(N)c12` the T/C (dose: 12.5 mg/kg/injection, schedule: Q01DX009 (ip), vehicle: saline with Tween-80) was 99 % of control, the T/C (dose: 25.0 mg/kg/injection, schedule: Q01DX009 (ip), vehicle: saline with Tween-80) was 102 % of control and the T/C (dose: 50.0 mg/kg/injection, schedule: Q01DX009 (ip), vehicle: saline with Tween-80) was 104 % of control. The T/C (dose: 100.0 mg/kg/injection, schedule: Q01DX009 (ip), vehicle: saline with Tween-80) was 98 % of control.
